Legend:
Format in all cases: cell-based
[1] = system: Resistant Enterococcus faecium and faecalis; assay: MIC, standard broth micro-dilution assay, Resistant; conditions: geometric mean of 4-6 isolates
Procedure: (§1) The antibacterial efficacy of the present compounds is illustrated by Table III. The minimal inhibitory concentrations (MICs) were determined using a standard broth micro-dilution assay.

[2] = system: Sensitive Enterococcus faecium and faecalis; assay: MIC, standard broth micro-dilution assay, Sensitive; conditions: geometric mean of 4-6 isolates
Procedure: as §1

[3] = system: Staphylococcus aureus 446; assay: MIC, standard broth micro-dilution assay, SA 446
Procedure: as §1

[4] = system: Staphylococcus aureus 489; assay: MIC, standard broth micro-dilution assay, SA 489
Procedure: as §1

[5] = system: Staphylococcus aureus 447; assay: MIC, standard broth micro-dilution assay, SA 447
Procedure: as §1

[6] = system: Staphylococcus aureus X400; assay: MIC, standard broth micro-dilution assay, SA X400
Procedure: as §1

[7] = system: Staphylococcus aureus X778; assay: MIC, standard broth micro-dilution assay, SA X778
Procedure: as §1

[8] = system: Staphylococcus aureus 491; assay: MIC, standard broth micro-dilution assay, SA 491
Procedure: as §1

[9] = system: Staphylococcus aureus S13E
Procedure: as §1

[10] = system: Staphylococcus aureus SA1199; assay: MIC, standard broth micro-dilution assay, SA 1199
Procedure: as §1

[11] = system: Staphylococcus aureus SA1199A; assay: MIC, standard broth micro-dilution assay, SA 1199A
Procedure: as §1

[12] = system: Staphylococcus haemolyticus 105; assay: MIC, standard broth micro-dilution assay, SH 105
Procedure: as §1

[13] = system: Staphylococcus haemolyticus 415; assay: MIC, standard broth micro-dilution assay, SH 415
Procedure: as §1

[14] = system: Staphylococcus epidermidis 270; assay: MIC, standard broth micro-dilution assay, SE 270
Procedure: as §1

Enterococcus faecium 180 = assay: MIC, standard broth micro-dilution assay, EF 180
Procedure: as §1

[15] = system: Enterococcus faecium 180-1; assay: MIC, standard broth micro-dilution assay, EF 180-1
Procedure: as §1

[16] = system: Enterococcus faecalis 2041; assay: MIC, standard broth micro-dilution assay, EF 2041
Procedure: as §1

[17] = system: Enterococcus faecalis 276; assay: MIC, standard broth micro-dilution assay, EF 276
Procedure: as §1

[18] = system: Enterococcus gallinarum 245; assay: MIC, standard broth micro-dilution assay, EG 245
Procedure: as §1

[19] = system: Haemophilus influenzae RD; assay: MIC, standard broth micro-dilution assay, HFRD
Procedure: as §1

Escherichia coli EC14 = assay: MIC, standard broth micro-dilution assay, EC 14
Procedure: as §1

Structure (SMILES)	minimal inhibitory concentration (MIC), Resistant [1]	minimal inhibitory concentration (MIC), Sensitive [2]	minimal inhibitory concentration (MIC), SA 446 [3]	minimal inhibitory concentration (MIC), SA 489 [4]	minimal inhibitory concentration (MIC), SA 447 [5]	minimal inhibitory concentration (MIC), SA X400 [6]	minimal inhibitory concentration (MIC), SA X778 [7]	minimal inhibitory concentration (MIC), SA 491 [8]	minimal inhibitory concentration (MIC), SA S13E [9]	minimal inhibitory concentration (MIC), SA 1199 [10]	minimal inhibitory concentration (MIC), SA 1199A [11]	minimal inhibitory concentration (MIC), SH 105 [12]	minimal inhibitory concentration (MIC), SH 415 [13]	minimal inhibitory concentration (MIC), SE 270 [14]	minimal inhibitory concentration (MIC), EF 180 (Enterococcus faecium 180)	minimal inhibitory concentration (MIC), EF 180-1 [15]	minimal inhibitory concentration (MIC), EF 2041 [16]	minimal inhibitory concentration (MIC), EF 276 [17]	minimal inhibitory concentration (MIC), EG 245 [18]	minimal inhibitory concentration (MIC), HFRD [19]	other results
CC(C)CC(NC(=O)OC(C)(C)C)C(=O)NC1C(=O)NC(CC(N)=O)C(=O)NC2C(=O)NC3C(=O)NC(C(=O)NC(C(=O)O)c4cc(O)cc(O)c4-c4cc3ccc4O)C(OC3CC(C)(N)C(O)C(C)O3)c3ccc(c(Cl)c3)Oc3cc2cc(c3OC2OC(CO)C(O)C(O)C2O)Oc2ccc(cc2Cl)C1O [Example 36, N^1-(N-BOC-D-leucine) derivative of desepivancosaminyl desleucylA82846B]	>128	16	8	4	16	4	4	2	4	4	4	2	>64	16	>64	4	8	4	16	>64	minimal inhibitory concentration (MIC), EC 14 (Escherichia coli EC14): >64
CC(C)CC(N)C(=O)NC1C(=O)NC(CC(N)=O)C(=O)NC2C(=O)NC3C(=O)NC(C(=O)NC(C(=O)O)c4cc(O)cc(O)c4-c4cc3ccc4O)C(OC3CC(C)(N)C(O)C(C)O3)c3ccc(c(Cl)c3)Oc3cc2cc(c3OC2OC(CO)C(O)C(O)C2O)Oc2ccc(cc2Cl)C1O [Example 37, N^1-D-leucine derivative of desepivancosaminyl-desleucylA82846B]	>32	0.87	0.5	0.25	1	0.25	0.25	0.5	0.25	0.5	0.125	0.25	4	0.5	>64	0.25	0.5	0.25	0.5	64	minimal inhibitory concentration (MIC), EC 14 (Escherichia coli EC14): >64
CCCCCCNC(CC(C)C)C(=O)NC1C(=O)NC(CC(N)=O)C(=O)NC2C(=O)NC3C(=O)NC(C(=O)NC(C(=O)O)c4cc(O)cc(O)c4-c4cc3ccc4O)C(OC3CC(C)(N)C(O)C(C)O3)c3ccc(c(Cl)c3)Oc3cc2cc(c3OC2OC(CO)C(O)C(O)C2OC2CC(C)(NCCCCCC)C(O)C(C)O2)Oc2ccc(cc2Cl)C1O [Example 38, N^1-(N-n-hexyl-D-leucine) derivative of N^DISACC-n-hexyl desleucylA82846B]	6.7	0.19	1	0.25	1	1	0.5	≦.06	0.5	1	≦.06	1	1	1	2	no growth	≦.06	0.25	0.5	no	minimal inhibitory concentration (MIC), EC 14 (Escherichia coli EC14): >64
CCCCCCNC(CC(C)C)C(=O)NC1C(=O)NC(CC(N)=O)C(=O)NC2C(=O)NC3C(=O)NC(C(=O)NC(C(=O)O)c4cc(O)cc(O)c4-c4cc3ccc4O)C(OC3CC(C)(N)C(O)C(C)O3)c3ccc(c(Cl)c3)Oc3cc2cc(c3OC2OC(CO)C(O)C(O)C2OC2CC(C)(N)C(O)C(C)O2)Oc2ccc(cc2Cl)C1O [Example 39, N^1-(N-n-hexyl-D-leucine) derivative of desleucylA82846B]	45	0.38	≦.06	≦.06	0.5	≦.06	≦.06	≦.06	0.125	0.125	≦.06	0.5	2	0.25	2	no growth	≦.06	≦.06	0.5	no	minimal inhibitory concentration (MIC), EC 14 (Escherichia coli EC14): >64
CC1OC(OC2c3ccc(c(Cl)c3)Oc3cc4cc(c3OC3OC(CO)C(O)C(O)C3OC3CC(C)(N)C(O)C(C)O3)Oc3ccc(cc3Cl)C(O)C(NC(=O)C(Cc3ccccc3)N(C)C(=O)OC(C)(C)C)C(=O)NC(CC(N)=O)C(=O)NC4C(=O)NC3C(=O)NC2C(=O)NC(C(=O)O)c2cc(O)cc(O)c2-c2cc3ccc2O)CC(C)(N)C1O [Example 40, N^1-(N-BOC-N-methyl-D-phenylalanine) derivative of desleucylA82846B]	>128	9.2	4	4	8	4	4	2	4	4	2	4	64	4	>64	4	2	1	16	>64	minimal inhibitory concentration (MIC), EC 14 (Escherichia coli EC14): >64
CC(C)C(C(=O)NC1C(=O)NC(CC(N)=O)C(=O)NC2C(=O)NC3C(=O)NC(C(=O)NC(C(=O)O)c4cc(O)cc(O)c4-c4cc3ccc4O)C(OC3CC(C)(N)C(O)C(C)O3)c3ccc(c(Cl)c3)Oc3cc2cc(c3OC2OC(CO)C(O)C(O)C2OC2CC(C)(N)C(O)C(C)O2)Oc2ccc(cc2Cl)C1O)N(C)C(=O)OC(C)(C)C [Example 41, N^1-(N-BOC-N-methyl-D-valine) derivative of desleucylA82846B]	>128	84	32	16	32	16	8	4	16	16	8	16	64	8	>64	4	8	8	>64	no	minimal inhibitory concentration (MIC), EC 14 (Escherichia coli EC14): >64
